Source: US9732094B2, “Arylquinazolines” (Merck Patent GmbH, priority 2013, dated 2017)
pIC50, pKi: −log10 of the molar value. Like-named read-outs stand apart in the source and are kept apart here.

Columns and labels:
DNA-PK = DNA-PK (Homo sapiens (Human), UniProt P78527); assay: DNA-PK assay (biochemical), flashplate 33P-ATP kinase assay
Outline: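 Radiometric kinase reaction in streptavidin-coated flashplates, stopped with 200 mM EDTA, then 30 min room-temperature incubation and saline washes.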

[1] = molecular target: DNA-PK phosphorylation at serine 2056 (Homo sapiens (Human), UniProt P78527); assay: DNA-PK phosphorylation at serine 2056 (cellular), bleomycin-treated HCT116 cells, ELISA; format: cell-based; conditions: read-out: IC50 pDNA-PK
Outline: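 HCT116 cells were treated with 10 μM bleomycin plus test compounds for six hours at 37 °C. Phospho-Ser2056 DNA-PK measured by chemiluminescent ELISA, normalised to total DNA-PKcs signal; DMSO control as blank.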

Kv11.1 (hERG) = Kv11.1 (hERG) (Homo sapiens (Human), UniProt Q12809); assay: Kv11.1 (hERG) ion channel activity (patch clamp assay), HEK293 cells transfected with hERG gene
Kv11.1 (hERG), sequence (Q12809 whole entry): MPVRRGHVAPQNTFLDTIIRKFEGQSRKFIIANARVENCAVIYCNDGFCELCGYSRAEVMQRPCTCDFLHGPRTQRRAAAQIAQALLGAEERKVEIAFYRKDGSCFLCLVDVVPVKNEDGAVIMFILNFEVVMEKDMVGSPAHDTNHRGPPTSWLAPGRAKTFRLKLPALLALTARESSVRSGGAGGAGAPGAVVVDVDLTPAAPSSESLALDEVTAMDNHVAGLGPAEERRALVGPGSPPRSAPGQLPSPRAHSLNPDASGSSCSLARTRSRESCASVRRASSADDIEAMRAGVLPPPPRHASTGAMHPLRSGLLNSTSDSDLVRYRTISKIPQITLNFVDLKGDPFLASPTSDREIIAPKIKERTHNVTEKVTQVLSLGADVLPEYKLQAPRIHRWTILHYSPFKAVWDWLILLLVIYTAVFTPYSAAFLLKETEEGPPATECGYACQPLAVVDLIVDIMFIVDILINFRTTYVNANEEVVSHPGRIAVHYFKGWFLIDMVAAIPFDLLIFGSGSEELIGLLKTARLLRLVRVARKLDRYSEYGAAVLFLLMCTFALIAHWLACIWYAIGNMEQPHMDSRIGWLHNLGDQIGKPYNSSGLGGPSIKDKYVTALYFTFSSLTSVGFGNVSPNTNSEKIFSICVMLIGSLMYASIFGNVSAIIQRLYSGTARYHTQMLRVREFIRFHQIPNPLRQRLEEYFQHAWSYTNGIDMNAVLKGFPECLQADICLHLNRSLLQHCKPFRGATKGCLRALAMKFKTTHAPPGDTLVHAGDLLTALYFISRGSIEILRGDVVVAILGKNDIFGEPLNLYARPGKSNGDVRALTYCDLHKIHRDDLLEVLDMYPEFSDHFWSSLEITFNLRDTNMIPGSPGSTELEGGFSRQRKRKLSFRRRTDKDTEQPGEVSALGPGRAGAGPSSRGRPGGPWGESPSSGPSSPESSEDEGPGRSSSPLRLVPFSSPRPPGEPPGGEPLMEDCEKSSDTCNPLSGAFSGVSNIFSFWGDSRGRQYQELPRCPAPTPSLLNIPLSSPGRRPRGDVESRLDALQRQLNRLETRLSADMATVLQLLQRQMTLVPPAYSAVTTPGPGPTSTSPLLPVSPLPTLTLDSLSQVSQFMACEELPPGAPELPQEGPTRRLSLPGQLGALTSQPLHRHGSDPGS
Description: C) Kv11.1 (hERG) Ion Channel Activity (Patch Clamp Assay)
The patch-clamp measurement was carried out at room temperature in whole-cell configuration on human embryonic kidney cells (HEK293) which have been transfected in a stable manner with the hERG gene.
The whole-cell configurations were carried out using an automated patch clamp device (Patchliner™, Nanion Technologies, Munich). […] The glass chip has a hole of defined size to which the cell is transferred into the Gigaseal by application of a reduced pressure and brought into the whole-cell configuration. Buffer, cell suspension and test substances were added to microchannels of the chip using a Teflon-coated pipette. The cells were clamped to a holding potential of −80 mV. For measurement of substance-promoted inhibition of the Kv11.1 channel, the following voltage protocol was applied at 10-second intervals: 51 ms/−80 mV, 500 ms/+40 mV, 500 ms/−40 mV, 200 ms/−80 mV. The leakage current is subtracted by means of the P4 method. The cells were resuspended in extracellular buffer (EC) and applied to the chip. After the cell had been collected, the seal was improved by addition of a seal enhancer buffer. As soon as the whole-cell configuration had been reached, the seal enhancer buffer was washed out and replaced by extracellular buffer. The measurement started in EC for 1.5 min. DMSO (vehicle control, 0.1% of DMSO) was then applied, and the control current was recorded for 3 min. The test substance was subsequently added twice in the same concentration, and the potassium current was measured for 3.5 min in each case.
The reference substance used was the Kv11.1 (hERG) ion channel blocker quinidine. The effects of test substances and quinidine were standardised to the associated vehicle control. The effect on the Kv11.1 (hERG) channel activity was assessed from the potassium current at −40 mV. For the calculation, the current was evaluated for the respective final trace.
During the measurement, an aliquot of the test substance was taken for concentration determination. The sample was measured immediately by HPLC, and the final concentration was determined from a calibration curve.

[2] = cellular, HCT116 cells, 10 μM bleomycin, six hours
[3] = read-out: Ki [Kv1.11 hERG], patch clamp, HEK293 transfected with hERG gene
[4] = cellular DNA-PK phosphorylation at serine 2056, HCT116
[5] = read-out: Ki [Kv1.11 hERG], hERG patch clamp assay (cells without asterisk)

| Structure (SMILES) | pIC50 (DNA-PK; enzymatic, 5 μM ATP) | pIC50 [1, 2] | pIC50 (DNA-PK; biochemical DNA-PK assay) | pIC50 [1, 4] | pKi (Kv11.1 (hERG); [3]) | pKi (Kv11.1 (hERG); [5]) | further results |
| --- | --- | --- | --- | --- | --- | --- | --- |
| COC(c1ccc(F)c(-c2ncnc3cc(N4CCOCC4)ccc23)c1)c1nccs1 (stereo not drawn) [Example 177, 4-[2-Fluoro-5-(-methoxythiazol-2-ylmethyl)phenyl]-7-morpholin-4-yl-quinazoline] |  |  |  |  |  |  | pIC50 (DNA-PK; Table 5): 8.15 to 8.52; pIC50 ([1]; Table 5, HCT116 cells): 4.52 to 5.00; pKi (Kv11.1 (hERG); read-out: Ki [Kv1.11 hERG], Table 5): < 4.60 |
| OC(c1ccc2nccn2n1)c1cc(-c2ncnc3cc(N4CCOCC4)ccc23)c(F)cc1Cl (stereo not drawn) [Example 57, [2-Chloro-4-fluoro-5-(7-morpholin-4-yl-quinazolin-4-yl)phenyl]-imidazo[1,2-b]pyridazin-6-ylmethanol] | > 8.52 | > 6.30 |  |  | 4.82 to 5.00 |  |  |
| OC(c1ccc(F)c(-c2ncnc3cc(N4CCOCC4)ccc23)c1)c1nccn2cccc12 (stereo not drawn) [Example 356, [4-Fluoro-3-(7-morpholin-4-yl-quinazolin-4-yl)-phenyl]pyrrolo[1,2-a]-pyrazin-1-ylmethanol] |  |  | > 8.52 | > 6.30 |  | > 5.00 |  |
| NC(=O)C(c1cc(-c2ncnc3cc(N4CCOCC4)ccc23)c(F)cc1Cl)c1cccc2nncn12 (stereo not drawn) [Example 298, 2-[2-Chloro-4-fluoro-5-(7-morpholin-4-yl-quinazolin-4-yl)-phenyl]-2-[1,2,4]-triazolo[4,3-a]pyridin-5-ylacetamide] |  |  | 7.52 to 8.15 | 4.52 to 5.00 |  | < 4.60 |  |
| Cc1nccnc1C(O)c1ccc(F)c(-c2ncnc3cc(N4CCOCC4)c(F)cc23)c1 (stereo not drawn) [Example 283, [4-Fluoro-3-(6-fluoro-7-morpholin-4-yl-quinazolin-4-yl)-phenyl]-(3-methyl-pyrazin-2-yl)-methanol] |  |  | 7.52 to 8.15 | 4.52 to 5.00 |  | < 4.60 |  |
| NC(=O)C(c1cccnc1)c1ccc(F)c(-c2ncnc3cc(N4CCOCC4)ccc23)c1 (stereo not drawn) [Example 295, 2-[4-Fluoro-3-(7-morpholin-4-yl-quinazolin-4-yl)-phenyl]-2-pyridin-3-ylacetamide] |  |  | 7.52 to 8.15 | 4.52 to 5.00 |  | < 4.60 |  |
| COc1ccc(C(C(N)=O)c2cc(-c3ncnc4cc(N5CCOCC5)ccc34)ccc2Cl)nn1 (stereo not drawn) [Example 310, 2-[2-Chloro-5-(7-morpholin-4-yl-quinazolin-4-yl)-phenyl]-2-(6-methoxy-pyridazin-3-yl)acetamide] |  |  | < 7.52 | 4.52 to 5.00 |  |  | pKi (Kv11.1 (hERG); Ki [Kv1.11 hERG], hERG patch clamp assay (cells without asterisk)): 4.60 to 4.82 |

The next lines start with results.

| pIC50 (DNA-PK; enzymatic, 5 μM ATP) | pIC50 [1, 2] | pIC50 (DNA-PK; biochemical DNA-PK assay) | pIC50 [1, 4] | Structure (SMILES) | pKi (Kv11.1 (hERG); [3]) | pKi (Kv11.1 (hERG); [5]) | further results |
| --- | --- | --- | --- | --- | --- | --- | --- |
| 8.15 to 8.52 | 5.00 to 5.30 |  |  | COc1cnc(C(O)c2ccc(F)c(-c3ncnc4cc(N5CCOCC5)ccc34)c2)cn1 (stereo not drawn) [Example 53, [4-Fluoro-3-(7-morpholin-4-yl-quinazolin-4-yl)phenyl]-(5-methoxy-pyrazin-2-yl)methanol] | < 4.60 |  |  |
| 8.15 to 8.52 | 5.30 to 6.30 |  |  | COc1ccnnc1C(O)c1cc(-c2ncnc3cc(N4CCOCC4)ccc23)c(F)cc1Cl (stereo not drawn) [Example 3, [2-Chloro-4-fluoro-5-(7-morpholin-4-yl-quinazolin-4-yl)phenyl]-(4-methoxy-pyridazin-3-yl)methanol] | < 4.60 |  |  |
| 7.52 to 8.15 | 4.52 to 5.00 |  |  | CN(C)C(=O)c1ccc(C(O)c2cc(-c3ncnc4cc(N5CCOCC5)ccc34)c(F)cc2Cl)nn1 (stereo not drawn) [Example 50, 6-{[2-Chloro-4-fluoro-5-(7-morpholin-4-yl-quinazolin-4-yl)phenyl]-hydroxymethyl}-pyridazine-3-carboxylic acid dimethylamide] | < 4.60 |  |  |
|  |  | 7.52 to 8.15 | 5.30 to 6.30 | Cn1nc(C(O)c2ccc(F)c(-c3ncnc4cc(N5CCOCC5)ccc34)c2)ccc1=O (stereo not drawn) [Example 326, 6-{[4-Fluoro-3-(7-morpholin-4-yl-quinazolin-4-yl)-phenyl]hydroxy-methyl}-2-methyl-2H-pyridazin-3-one] |  | < 4.60 |  |
| 8.15 to 8.52 | 5.30 to 6.30 |  |  | COc1ccc(C(OC)c2ccc(F)c(-c3ncnc4cc(N5CCOCC5)ccc34)c2)nn1 (stereo not drawn) [Example 73, 4-{2-Fluoro-5-[methoxy-(6-methoxy-pyridazin-3-yl)methyl]phenyl}-7-morpholin-4-yl-quinazoline] | < 4.60 |  |  |
